Data from ChEMBL document CHEMBL1147998, “Synthesis of pH-sensitive amphotericin B-poly(ethylene glycol) conjugates and study of their controlled release in vitro” (Bioorg Med Chem, 2007).

Assay: Toxicity in iv dosed NMRI mouse after 14 days
Type: organism-based
Conditions: in vivo

Work on C[C@@H]1[C@H](O)[C@@H](C)/C=C/C=C/C=C/C=C/C=C/C=C/C=C/[C@H](O[C@@H]2O[C@H](C)[C@@H](O)[C@H](N)[C@@H]2O)C[C@@H]2O[C@](O)(C[C@@H](O)C[C@@H](O)[C@H](O)CC[C@@H](O)C[C@@H](O)CC(=O)O[C@H]1C)C[C@H](O)[C@H]2C(=O)O [AMPHOTERICIN B] yielded an LD50 at 336 h of 3.7 mg/kg.
